# Test system: tobacco budworm (Heliothis virescens [Fabricius])
# Assay: surface-treated diet test against the tobacco budworm
# Format: in vivo
# Conditions: tobacco budworm second instar larvae, surface-treated diet, 0.25 millimoles of candidate insecticide on the surface of the diet, five-day exposure; for Percent Mortality: compared to total number of insects infested; for Percent Growth Inhibition: inhibition of insect weight relative to untreated controls
# Summary of the method: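 Wheat germ artificial diet surface-treated with 40 µL of 50 mM DMSO stock diluted 1:7 in 1:1 water/acetone (0.25 millimolar on diet), or sub-multiples for rate tests. One second-instar larva per well, 25° C, 60% RH, 5 days; percent weight inhibition vs DMSO controls and percent mortality.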
Compound,Percent Mortality,Percent Growth Inhibition
FC(F)(F)c1ccc(OC(c2ccc(C(F)(F)F)cc2)C2CCN(Cc3ccc(Oc4ccccn4)cc3)CC2)cc1 (centres unmarked) [Compound 455],100%,100%
FC(F)(F)Oc1ccc(C(Oc2ccc(C(F)(F)F)cc2)C2CCN(Cc3ccc(Oc4ncccn4)cc3)CC2)cc1 (centres unmarked) [Compound 456],17%,100%
CC(C)OC(=O)Nc1ccc(COC(c2ccc(C(F)(F)F)cc2)C2CCN(Cc3ccc(NC(=O)OC(C)C)cc3)CC2)cc1 (centres unmarked) [Compound 457],0%,16%
O=C(Nc1ccc(F)cc1)OC(c1ccc(OC(F)(F)F)cc1)C1CCN(Cc2ccccc2)CC1 (centres unmarked) [Compound 458],0%,94%
O=C(Nc1ccc(F)cc1)OC(c1ccc(OC(F)(F)F)cc1)C1CCN(Cc2ccc(Cl)cc2)CC1 (centres unmarked) [Compound 459],0%,99%
O=C(Nc1cc(F)cc(F)c1)OC(c1ccc(OC(F)(F)F)cc1)C1CCN(Cc2ccc(Cl)cc2)CC1 (centres unmarked) [Compound 460],0%,100%
O=C(Nc1cc(F)cc(F)c1)OC(c1ccc(OC(F)(F)F)cc1)C1CCN(Cc2ccc(F)cc2)CC1 (centres unmarked) [Compound 461],0%,98%
O=C(Nc1cc(F)cc(F)c1)OC(c1ccc(OC(F)(F)F)cc1)C1CCN(Cc2ccc(I)cc2)CC1 (centres unmarked) [Compound 462],83%,100%
O=C(Nc1ccc(Cl)cc1)OC(c1ccc(C(F)(F)F)cc1)C1CCN(Cc2ccc(O)cc2)CC1 (centres unmarked) [Compound 463],0%,65%
O=C(Nc1cc(F)cc(F)c1)OC(c1ccc(C(F)(F)F)cc1)C1CCN(Cc2ccc(O)cc2)CC1 (centres unmarked) [Compound 464],0%,63%
Nc1ccc(CN2CCC(C(OC(=O)Nc3ccc(Cl)cc3)c3ccc(C(F)(F)F)cc3)CC2)cc1 (centres unmarked) [Compound 465],0%,92%
Nc1ccc(CN2CCC(C(OC(=O)Nc3cc(F)cc(F)c3)c3ccc(C(F)(F)F)cc3)CC2)cc1 (centres unmarked) [Compound 466],17%,77%
CCCCCc1ccc(CN2CCC(C(OC(=O)Nc3cc(F)cc(F)c3)c3ccc(C(F)(F)F)cc3)CC2)cc1 (centres unmarked) [Compound 467],0%,68%
COc1ccc(CN2CCC(C(OC(=O)Nc3ccc(F)cc3)c3ccc(OC(F)(F)F)cc3)CC2)cc1 (centres unmarked) [Compound 468],33%,100%
COc1ccc(CN2CCC(C(OC(=O)Nc3cc(F)cc(F)c3)c3ccc(OC(F)(F)F)cc3)CC2)cc1 (centres unmarked) [Compound 469],17%,100%
CCCOc1ccc(CN2CCC(C(OC(=O)Nc3ccc(Cl)cc3)c3ccc(Cl)cc3)CC2)cc1 (centres unmarked) [Compound 470],100%,100%
CCCOc1ccc(CN2CCC(C(OC(=O)Nc3ccc(F)cc3)c3ccc(Cl)cc3)CC2)cc1 (centres unmarked) [Compound 471],100%,100%

Compound,Percent Mortality,Percent Growth Inhibition
CCCOc1ccc(CN2CCC(C(OC(=O)Nc3cccc(C(F)(F)F)c3)c3ccc(Cl)cc3)CC2)cc1 (centres unmarked) [Compound 472],100%,100%
CCCOc1ccc(CN2CCC(C(OC(=O)Nc3ccc(C(F)(F)F)cc3)c3ccc(Cl)cc3)CC2)cc1 (centres unmarked) [Compound 473],100%,100%
CCCOc1ccc(CN2CCC(C(OC(=O)Nc3cc(F)cc(F)c3)c3ccc(Cl)cc3)CC2)cc1 (centres unmarked) [Compound 474],100%,100%
CCCOc1ccc(CN2CCC(C(OC(=O)Nc3ccc(Cl)cc3)c3ccc(F)cc3)CC2)cc1 (centres unmarked) [Compound 475],100%,100%
CCCOc1ccc(CN2CCC(C(OC(=O)Nc3ccc(F)cc3)c3ccc(F)cc3)CC2)cc1 (centres unmarked) [Compound 476],100%,100%
CCCOc1ccc(CN2CCC(C(OC(=O)Nc3cccc(C(F)(F)F)c3)c3ccc(F)cc3)CC2)cc1 (centres unmarked) [Compound 477],100%,100%
CCCOc1ccc(CN2CCC(C(OC(=O)Nc3ccc(C(F)(F)F)cc3)c3ccc(F)cc3)CC2)cc1 (centres unmarked) [Compound 478],100%,100%
CCCOc1ccc(CN2CCC(C(OC(=O)Nc3cc(F)cc(F)c3)c3ccc(F)cc3)CC2)cc1 (centres unmarked) [Compound 479],100%,100%
CCCOc1ccc(CN2CCC(C(OC(=O)Nc3ccc(Cl)cc3)c3ccc(Cl)c(Cl)c3)CC2)cc1 (centres unmarked) [Compound 480],100%,100%
CCCOc1ccc(CN2CCC(C(OC(=O)Nc3ccc(F)cc3)c3ccc(Cl)c(Cl)c3)CC2)cc1 (centres unmarked) [Compound 481],100%,100%
CCCOc1ccc(CN2CCC(C(OC(=O)Nc3cc(F)cc(F)c3)c3ccc(Cl)c(Cl)c3)CC2)cc1 (centres unmarked) [Compound 482],100%,100%
CCCOc1ccc(CN2CCC(C(OC(=O)Nc3cccc(C(F)(F)F)c3)c3ccc(Cl)c(Cl)c3)CC2)cc1 (centres unmarked) [Compound 483],100%,100%
CCCOc1ccc(CN2CCC(C(OC(=O)Nc3ccc(C(F)(F)F)cc3)c3ccc(Cl)c(Cl)c3)CC2)cc1 (centres unmarked) [Compound 484],100%,100%
CCCOc1ccc(CN2CCC(C(OC(=O)Nc3ccc(Cl)cc3)c3cccc(C(F)(F)F)c3)CC2)cc1 (centres unmarked) [Compound 485],100%,100%
CCCOc1ccc(CN2CCC(C(OC(=O)Nc3ccc(F)cc3)c3cccc(C(F)(F)F)c3)CC2)cc1 (centres unmarked) [Compound 486],100%,100%
CCCOc1ccc(CN2CCC(C(OC(=O)Nc3cc(F)cc(F)c3)c3cccc(C(F)(F)F)c3)CC2)cc1 (centres unmarked) [Compound 487],100%,100%
CCCOc1ccc(CN2CCC(C(OC(=O)Nc3cccc(C(F)(F)F)c3)c3cccc(C(F)(F)F)c3)CC2)cc1 (centres unmarked) [Compound 488],100%,100%
